The target in one assay is EGFR (UniProt P00533). As to conditions: for inhibition: concentration not given here.
In assay [1] the target is EGFR (human) (UniProt P00533). As to conditions: 3t3.
Assay [2] deals with EGFR (human) (UniProt P00533). As to conditions: sw 620.
The target in assay [3] is EGFR (human) (UniProt P00533). As to conditions: mda-mb-435.
In assay [4] the target is EGFR (human) (UniProt P00533). As to conditions: sk-br-3.
The target of assay [5] is EGFR (human) (UniProt P00533). As to conditions: a431.
Assay [6] has as its target EGFR (human) (UniProt P00533). As to conditions: ddp.
Assay [7] addresses EGFR (human) (UniProt P00533). As to conditions: a2780.

Values after ≈ are worked out from the molar mass of the structure shown.

Chain of EGFR (human) (P00533 whole entry, looked up): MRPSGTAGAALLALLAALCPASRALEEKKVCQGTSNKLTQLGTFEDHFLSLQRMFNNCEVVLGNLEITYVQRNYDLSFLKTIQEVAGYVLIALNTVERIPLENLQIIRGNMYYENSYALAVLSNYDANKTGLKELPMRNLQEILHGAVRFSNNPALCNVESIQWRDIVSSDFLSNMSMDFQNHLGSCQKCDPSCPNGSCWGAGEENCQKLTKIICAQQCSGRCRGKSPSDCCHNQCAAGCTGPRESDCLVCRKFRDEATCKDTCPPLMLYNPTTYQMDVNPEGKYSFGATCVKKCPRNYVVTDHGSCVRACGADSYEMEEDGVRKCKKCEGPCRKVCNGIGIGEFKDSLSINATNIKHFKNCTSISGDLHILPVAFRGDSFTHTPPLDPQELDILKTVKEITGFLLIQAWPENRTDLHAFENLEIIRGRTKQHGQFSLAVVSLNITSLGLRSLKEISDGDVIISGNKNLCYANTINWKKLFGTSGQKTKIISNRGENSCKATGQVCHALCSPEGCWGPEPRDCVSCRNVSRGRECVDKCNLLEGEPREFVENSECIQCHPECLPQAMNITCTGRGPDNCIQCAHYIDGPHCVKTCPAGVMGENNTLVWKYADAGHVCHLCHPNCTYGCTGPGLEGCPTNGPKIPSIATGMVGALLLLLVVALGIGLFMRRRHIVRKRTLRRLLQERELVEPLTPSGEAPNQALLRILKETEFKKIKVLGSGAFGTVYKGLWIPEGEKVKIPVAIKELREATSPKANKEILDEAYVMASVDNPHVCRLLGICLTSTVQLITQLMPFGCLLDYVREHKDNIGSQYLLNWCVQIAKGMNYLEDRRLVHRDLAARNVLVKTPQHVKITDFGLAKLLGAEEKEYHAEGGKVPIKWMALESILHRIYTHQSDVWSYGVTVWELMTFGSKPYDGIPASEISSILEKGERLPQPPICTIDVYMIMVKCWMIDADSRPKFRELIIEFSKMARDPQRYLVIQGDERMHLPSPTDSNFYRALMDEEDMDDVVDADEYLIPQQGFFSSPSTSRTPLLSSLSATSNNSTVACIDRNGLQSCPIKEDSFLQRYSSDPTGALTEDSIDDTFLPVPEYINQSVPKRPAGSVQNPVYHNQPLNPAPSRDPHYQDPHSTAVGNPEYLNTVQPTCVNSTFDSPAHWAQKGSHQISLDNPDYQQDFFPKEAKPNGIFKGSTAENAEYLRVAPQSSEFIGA
Chain of EGFR (P00533 whole entry, looked up): as above

Usually inhibition stands for the relative decrease from the control value, in per cent. In turn, `COc1cc2ncc(C#N)c(Nc3cccc4ncccc34)c2cc1OC` displayed an inhibition against EGFR of 0%.
By IC50 is commonly meant the concentration needed to halve the response being measured. As to `CCOc1cc2ncc(C#N)c(Nc3ccc4c(c3)S(=O)(=O)C=C4)c2cc1OCC`, the IC50 came to 0.392 µg/mL (≈ 0.93 µM) against EGFR (human) [1], 0.146 µg/mL (≈ 0.346 µM) against EGFR (human) [2], 0.0033 µg/mL (≈ 0.00783 µM) against EGFR (human) [3] and 0.336 µg/mL (≈ 0.797 µM) on EGFR (human) [4].
As for `CCOc1cc2ncc(C#N)c(Nc3ccc4c(c3)NCC4)c2cc1OCC`, on EGFR, the half-maximal inhibitory concentration (IC50) was above 10000 nM and the inhibition stood at 6%.
Compound `COc1cc2ncc(C#N)c(Nc3ccc(O)c4ncccc34)c2cc1OC` yielded an inhibition against EGFR of 0%.
Regarding `CCOc1cc2ncc(C#N)c(Nc3ccc4c(=O)[nH][nH]c(=O)c4c3)c2cc1OCC`, the IC50 on EGFR (human) [1], at EGFR (human) [2], against EGFR (human) [3], at EGFR (human) [5] and on EGFR (human) [4] was above 5 µg/mL each time.
Take `CCOc1cc2ncc(C#N)c(Nc3ccc4c(c3)CCC4=O)c2cc1OCC`: the IC50 against EGFR (human) [1] was 0.0923 µg/mL (≈ 0.238 µM); against EGFR (human) [3] it was 0.028 µg/mL (≈ 0.0723 µM); against EGFR (human) [5], 0.0244 µg/mL (≈ 0.063 µM); against EGFR (human) [4] it was 0.0281 µg/mL (≈ 0.0725 µM).
Take `CCOc1cc2ncc(C#N)c(Nc3ccc4cn[nH]c4c3)c2cc1OCC`: the 50% inhibitory concentration (IC50) at EGFR (human) [2] was 0.033 µg/mL (≈ 0.0884 µM); against EGFR (human) [6], 0.036 µg/mL (≈ 0.0964 µM); at EGFR (human) [3], 0.02 µg/mL (≈ 0.0536 µM); against EGFR (human) [7], 0.032 µg/mL (≈ 0.0857 µM); against EGFR (human) [5] it was 0.025 µg/mL (≈ 0.0669 µM); on EGFR (human) [4], 0.016 µg/mL (≈ 0.0428 µM).
As for `COCCOc1cc2ncc(C#N)c(Nc3ccc4cn[nH]c4c3)c2cc1OCCOC`, the IC50 against EGFR (human) [1] is above 5 µg/mL; on EGFR (human) [2] it was above 5 µg/mL; on EGFR (human) [3], 2.04 µg/mL (≈ 4.72 µM); on EGFR (human) [4] it was above 5 µg/mL.
Turning to `COc1cc2ncc(C#N)c(Nc3ccc4[nH]c(=O)sc4c3)c2cc1OC`, the inhibition at EGFR is 0%.
As to `CCOc1cc2ncc(C#N)c(Nc3ccc4c(C)cc(=O)oc4c3)c2cc1OCC`, the IC50 on EGFR (human) [2] is 0.325 µg/mL (≈ 0.782 µM); at EGFR (human) [6] it was 0.249 µg/mL (≈ 0.599 µM); on EGFR (human) [7], 0.27 µg/mL (≈ 0.65 µM); at EGFR (human) [5], 0.369 µg/mL (≈ 0.888 µM); at EGFR (human) [4], 0.429 µg/mL (≈ 1.03 µM).
Turning to `CCOc1cc2ncc(C#N)c(Nc3ccc4c[nH]nc4c3)c2cc1OC`, the values for the IC50 against EGFR (human) [2], at EGFR (human) [3] and against EGFR (human) [4] were 0.0212 µg/mL (≈ 0.059 µM), 0.0359 µg/mL (≈ 0.0999 µM) and 0.022 µg/mL (≈ 0.0612 µM), respectively.
`COc1cc2ncc(C#N)c(Nc3ccc4[nH]ncc4c3)c2cc1OC` yielded an inhibition on EGFR of 0%.
For `CCOc1cc2ncc(C#N)c(Nc3ccc4c(c3)C(=O)OC4)c2cc1OCC`, the IC50 at EGFR (human) [2] was 1.56 µg/mL (≈ 4.02 µM); against EGFR (human) [3], 3.4 µg/mL (≈ 8.74 µM); against EGFR (human) [5] it was above 5 µg/mL; against EGFR (human) [4], above 5 µg/mL.
Take `Cn1ccnc1Sc1ccc(Nc2c(C#N)cnc3ccc(/C=C/C(N)=O)cc23)cc1Cl`: the concentration for half-maximal inhibition (IC50) at EGFR was determined as 10 nM.
Still for that read-out and setting: to `COc1cc2ncc(C#N)c(Nc3ccc4[nH]ccc4c3)c2cc1OC` belongs 1.5 to 4 nM.
`COc1cc2ncc(C#N)c(Nc3cccc4cnccc34)c2cc1OC`: the inhibition on EGFR came out at 0%.
Regarding `CCOc1cc2ncc(C#N)c(Nc3ccc4[nH]c(=O)oc(=O)c4c3)c2cc1OCC`, the IC50 was above 5 µg/mL at EGFR (human) [1]; 2.92 µg/mL (≈ 6.98 µM) on EGFR (human) [2]; above 5 µg/mL at EGFR (human) [3]; above 5 µg/mL at EGFR (human) [5]; above 5 µg/mL on EGFR (human) [4].
In the case of `CCOc1cc2ncc(C#N)c(Nc3ccc4c(c3)C(=O)NCC(=O)N4C)c2cc1OCC`, the IC50 at EGFR (human) [2], against EGFR (human) [3], on EGFR (human) [5] and at EGFR (human) [4] was above 5 µg/mL in each case.
In the case of `CCOc1cc2c(Nc3ccc4cn[nH]c4c3)c(C#N)cnc2cc1OC`, the half-inhibitory concentration (IC50) turned out to be 3.22 µg/mL (≈ 8.96 µM) on EGFR (human) [1], 4.31 µg/mL (≈ 12 µM) at EGFR (human) [2], 2.63 µg/mL (≈ 7.31 µM) against EGFR (human) [3] and 2.09 µg/mL (≈ 5.83 µM) against EGFR (human) [4].
With `COc1cc2c(Nc3ccc4cn[nH]c4c3)c(C#N)cnc2cc1OCCN(C)C`, at EGFR, the inhibition came to 0%.
In the case of `CCOc1cc2ncc(C#N)c(Nc3ccc4c(c3)CCC4)c2cc1OCC`, the IC50 at EGFR (human) [1] is 0.525 µg/mL (≈ 1.41 µM); at EGFR (human) [2] it was below 0.0005 µg/mL; against EGFR (human) [3], 0.352 µg/mL (≈ 0.943 µM); on EGFR (human) [4], above 0.294 µg/mL.
Regarding `CCOc1cc2ncc(C#N)c(Nc3ccc4cc[nH]c4c3)c2cc1OCC`, the IC50 at EGFR (human) [2] is 0.286 to 0.326 µg/mL (≈ 0.768 to 0.875 µM); against EGFR (human) [6] it was 0.313 µg/mL (≈ 0.84 µM); against EGFR (human) [3], 0.073 to 0.365 µg/mL (≈ 0.196 to 0.98 µM); on EGFR (human) [7] it was 0.231 µg/mL (≈ 0.62 µM); on EGFR (human) [5] it was 0.123 to 0.216 µg/mL (≈ 0.33 to 0.58 µM); against EGFR (human) [4] it was 0.0374 to 0.18 µg/mL (≈ 0.1 to 0.483 µM).
With `CCOc1cc2ncc(C#N)c(Nc3ccc4c(c3)OCCO4)c2cc1OCC`, the IC50 at EGFR (human) [1] is 0.853 µg/mL (≈ 2.18 µM); against EGFR (human) [2] it was 0.411 µg/mL (≈ 1.05 µM); against EGFR (human) [3], 0.235 µg/mL (≈ 0.6 µM); on EGFR (human) [4], 0.281 µg/mL (≈ 0.718 µM).

Values taken from the Kinase Knowledgebase extract (Sharma et al. 2016).
